# Experimental data from patent publication US20230048132A1, “CYCLIN-DEPENDENT KINASE INHIBITORS” (SPV THERAPEUTICS INC., priority 2018, published 2023).
# Where “and” joins values, the source holds several entries; their conditions need not be identical. Identical values can stand only once. Like-named read-outs stand apart in the source and are kept apart here.
# Experiments:
# Experiment in all cases: CDK inhibition assay (microfluidic LabChip, IC50 format)
# CDK1/B = CDK1/B (Homo sapiens, UniProt P06493); assay type: biochemical
# CDK9-CYCLINT1 = target: T1, CDK9-CYCLINT1 (Homo sapiens, UniProt P50750); assay type: biochemical; conditions: read-out: CDK9 CyclinT1 IC50
# T1 construct: purchased Carna
# CDK4-CYCLIND1 = CDK4-CYCLIND1 (Homo sapiens, UniProt P11802); conditions: a second value in parentheses for some compounds
# Experimental: Inhibition assays were performed using microfluidic LabChip 300 Drug Discovery System from Caliper Life Sciences. […] The assay has a total volume of 10 μL consisting of 5 μL of enzyme and buffer and 5 μL of substrate and buffer. The test compounds were diluted in 100% dimethylsulfoxide (DMSO) using 3-fold dilution steps. […] Compounds were tested in a single well for each dilution and the final concentration of DMSO was maintained at 1%.
# The assay buffer contained 100 mM HEPES, pH 7.5, 0.01% Triton X-100, 0.1% bovine serum albumin (BSA), 5 mM MgCl2; 1 mM dithiothreitol (DTT), 10 μM sodium orthovanadate, and 10 μM β-glycerophosphate.
# The assay was conducted by adding 5 μL of enzyme, adenosine triphosphate (ATP) and buffer to an assay plate. A 100 nL aliquot of the diluted compounds were added to the plate. The assay was initiated by the addition of 5 μL of phosphoenolpyruvate substrate (PEP) in buffer. […] The reaction was terminated by the addition of EDTA. The plates were analyzed using a Caliper LabChip 3000.
# Additional inhibition assays were performed as described above.
# The assays were conducted as described above for the racemates.
# CDK7 CyclinH = CDK7 CyclinH (Homo sapiens, UniProt P50613); assay type: biochemical
# CDK2-CYCLINA = target: T2, CDK2-CYCLINA (Homo sapiens, UniProt P24941); assay type: biochemical; conditions: read-out: CDK2 CyclinA IC50
# T2 construct: purchased Millipore
# CDK6-CYCLIND3 = target: T3, CDK6-CYCLIND3 (Homo sapiens, UniProt Q00534); assay type: biochemical; conditions: Table 4a; read-out: CDK6 CyclinD3 IC50
# T3 construct: purchased Carna
# [1] = CDK4 CyclinD1 IC50, Table 4b, lower part
# CDK4-CYCLIND1, sequence (P11802 whole entry): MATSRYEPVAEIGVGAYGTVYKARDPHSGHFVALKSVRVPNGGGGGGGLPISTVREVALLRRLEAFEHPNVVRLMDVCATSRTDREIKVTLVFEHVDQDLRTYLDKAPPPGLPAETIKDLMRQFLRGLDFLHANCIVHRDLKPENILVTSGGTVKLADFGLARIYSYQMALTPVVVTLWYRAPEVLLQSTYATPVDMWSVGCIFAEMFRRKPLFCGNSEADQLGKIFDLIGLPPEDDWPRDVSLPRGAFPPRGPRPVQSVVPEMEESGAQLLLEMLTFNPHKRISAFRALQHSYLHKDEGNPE
# CDK4-CYCLIND1, sequence (P24385 whole entry partner): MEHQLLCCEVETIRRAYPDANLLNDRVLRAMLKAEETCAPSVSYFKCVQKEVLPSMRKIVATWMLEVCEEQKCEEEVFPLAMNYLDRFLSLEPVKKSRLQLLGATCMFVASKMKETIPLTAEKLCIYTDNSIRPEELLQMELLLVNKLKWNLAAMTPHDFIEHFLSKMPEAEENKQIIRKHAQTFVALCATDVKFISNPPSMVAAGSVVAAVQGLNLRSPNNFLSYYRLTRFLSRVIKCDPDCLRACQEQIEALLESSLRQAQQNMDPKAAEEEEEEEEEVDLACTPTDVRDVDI
# T1 sequence (P50750 whole entry): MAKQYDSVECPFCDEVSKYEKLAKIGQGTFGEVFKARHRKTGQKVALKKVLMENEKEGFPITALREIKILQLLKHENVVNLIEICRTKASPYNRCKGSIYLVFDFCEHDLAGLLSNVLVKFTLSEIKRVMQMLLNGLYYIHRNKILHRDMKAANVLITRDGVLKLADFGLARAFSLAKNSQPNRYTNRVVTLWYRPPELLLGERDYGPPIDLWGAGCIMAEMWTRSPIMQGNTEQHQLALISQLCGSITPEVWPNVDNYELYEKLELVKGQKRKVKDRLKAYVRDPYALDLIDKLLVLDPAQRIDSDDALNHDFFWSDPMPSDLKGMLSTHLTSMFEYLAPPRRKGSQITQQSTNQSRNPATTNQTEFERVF
# T1 sequence (O60563 whole entry partner): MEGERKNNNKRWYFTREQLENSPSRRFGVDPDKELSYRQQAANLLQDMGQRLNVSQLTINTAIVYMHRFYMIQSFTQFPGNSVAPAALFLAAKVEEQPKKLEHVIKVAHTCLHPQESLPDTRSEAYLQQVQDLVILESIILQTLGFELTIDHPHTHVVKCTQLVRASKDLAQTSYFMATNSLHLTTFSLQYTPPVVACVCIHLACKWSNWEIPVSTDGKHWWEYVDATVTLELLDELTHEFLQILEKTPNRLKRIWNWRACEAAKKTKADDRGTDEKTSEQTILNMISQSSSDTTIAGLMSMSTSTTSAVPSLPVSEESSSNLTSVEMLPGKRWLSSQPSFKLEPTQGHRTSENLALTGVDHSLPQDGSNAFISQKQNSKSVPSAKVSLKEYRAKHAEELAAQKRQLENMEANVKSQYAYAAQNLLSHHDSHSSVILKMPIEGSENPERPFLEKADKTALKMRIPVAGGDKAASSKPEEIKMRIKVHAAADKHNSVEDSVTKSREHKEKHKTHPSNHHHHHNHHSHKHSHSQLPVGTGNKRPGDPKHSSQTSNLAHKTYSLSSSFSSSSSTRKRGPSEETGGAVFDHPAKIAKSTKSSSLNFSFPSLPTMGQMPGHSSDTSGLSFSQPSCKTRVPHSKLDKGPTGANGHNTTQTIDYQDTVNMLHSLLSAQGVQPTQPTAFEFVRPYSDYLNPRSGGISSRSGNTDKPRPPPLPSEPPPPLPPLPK
# CDK7 CyclinH, sequence (P50613 whole entry): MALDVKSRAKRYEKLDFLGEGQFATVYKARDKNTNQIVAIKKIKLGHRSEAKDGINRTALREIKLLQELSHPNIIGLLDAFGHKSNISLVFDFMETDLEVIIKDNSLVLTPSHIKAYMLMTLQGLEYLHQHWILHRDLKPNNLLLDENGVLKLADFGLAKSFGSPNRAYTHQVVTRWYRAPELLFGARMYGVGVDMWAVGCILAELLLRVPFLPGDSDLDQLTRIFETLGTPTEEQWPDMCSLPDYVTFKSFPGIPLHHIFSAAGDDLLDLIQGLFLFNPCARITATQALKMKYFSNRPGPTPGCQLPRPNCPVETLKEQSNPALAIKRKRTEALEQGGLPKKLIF
# CDK7 CyclinH, sequence (P51946 whole entry partner): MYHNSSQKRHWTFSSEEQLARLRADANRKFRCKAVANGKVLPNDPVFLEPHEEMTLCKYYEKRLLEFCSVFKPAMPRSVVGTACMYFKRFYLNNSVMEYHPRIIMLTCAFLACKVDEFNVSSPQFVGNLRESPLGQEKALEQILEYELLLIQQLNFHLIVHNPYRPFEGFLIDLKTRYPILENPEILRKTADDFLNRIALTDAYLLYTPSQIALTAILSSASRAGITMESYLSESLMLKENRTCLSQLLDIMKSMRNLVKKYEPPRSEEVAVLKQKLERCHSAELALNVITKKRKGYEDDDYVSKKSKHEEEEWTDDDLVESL
# CDK7 CyclinH, sequence (P51948 whole entry partner): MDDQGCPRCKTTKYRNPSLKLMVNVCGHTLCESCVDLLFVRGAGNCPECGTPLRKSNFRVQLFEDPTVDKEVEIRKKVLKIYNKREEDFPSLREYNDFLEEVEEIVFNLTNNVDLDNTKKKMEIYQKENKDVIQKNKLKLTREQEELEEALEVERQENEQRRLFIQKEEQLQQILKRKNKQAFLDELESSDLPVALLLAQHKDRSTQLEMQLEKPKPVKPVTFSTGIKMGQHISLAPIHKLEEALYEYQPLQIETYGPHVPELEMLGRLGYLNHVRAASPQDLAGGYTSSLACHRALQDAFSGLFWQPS
# CDK1/B, sequence (P06493 whole entry, species assumed): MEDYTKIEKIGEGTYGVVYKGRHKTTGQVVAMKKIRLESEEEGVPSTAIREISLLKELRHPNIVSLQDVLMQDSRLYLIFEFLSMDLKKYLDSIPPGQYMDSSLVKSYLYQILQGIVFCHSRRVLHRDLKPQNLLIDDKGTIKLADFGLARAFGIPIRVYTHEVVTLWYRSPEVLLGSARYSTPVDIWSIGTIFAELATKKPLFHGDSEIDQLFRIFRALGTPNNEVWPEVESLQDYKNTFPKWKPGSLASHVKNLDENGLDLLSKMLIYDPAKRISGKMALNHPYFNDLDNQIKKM
# CDK1/B, sequence (P14635 whole entry partner, species assumed): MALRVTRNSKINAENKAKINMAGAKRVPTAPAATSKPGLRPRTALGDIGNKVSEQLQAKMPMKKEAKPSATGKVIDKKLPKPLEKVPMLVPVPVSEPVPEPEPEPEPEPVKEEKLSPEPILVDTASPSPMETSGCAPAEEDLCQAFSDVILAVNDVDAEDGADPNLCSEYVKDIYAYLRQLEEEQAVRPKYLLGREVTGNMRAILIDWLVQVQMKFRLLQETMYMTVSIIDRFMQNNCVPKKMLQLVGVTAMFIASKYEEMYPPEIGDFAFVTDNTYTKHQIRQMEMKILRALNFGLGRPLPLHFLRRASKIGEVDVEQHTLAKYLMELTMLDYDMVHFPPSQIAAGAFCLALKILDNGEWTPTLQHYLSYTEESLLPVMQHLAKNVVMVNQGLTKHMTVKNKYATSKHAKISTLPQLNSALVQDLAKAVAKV
# T3 sequence (Q00534 whole entry): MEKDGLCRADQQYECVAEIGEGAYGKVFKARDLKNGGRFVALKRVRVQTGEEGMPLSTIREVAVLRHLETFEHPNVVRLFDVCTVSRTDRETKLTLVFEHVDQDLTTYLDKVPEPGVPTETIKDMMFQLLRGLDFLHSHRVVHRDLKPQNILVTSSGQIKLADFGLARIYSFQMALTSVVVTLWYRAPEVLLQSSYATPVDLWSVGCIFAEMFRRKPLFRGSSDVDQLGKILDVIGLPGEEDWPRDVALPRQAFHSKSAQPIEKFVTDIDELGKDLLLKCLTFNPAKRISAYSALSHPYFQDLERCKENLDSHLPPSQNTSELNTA
# T3 sequence (P30281 whole entry partner): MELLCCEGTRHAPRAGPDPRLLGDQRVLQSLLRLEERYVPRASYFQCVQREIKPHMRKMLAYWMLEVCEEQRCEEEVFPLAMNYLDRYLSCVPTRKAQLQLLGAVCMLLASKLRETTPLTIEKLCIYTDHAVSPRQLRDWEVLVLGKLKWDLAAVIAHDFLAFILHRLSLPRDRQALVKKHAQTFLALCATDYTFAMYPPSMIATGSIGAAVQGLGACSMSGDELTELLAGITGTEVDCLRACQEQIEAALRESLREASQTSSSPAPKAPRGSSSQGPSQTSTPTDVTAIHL
"IC50 (CDK1/B; Table 4b, lower part)","IC50 (CDK9-CYCLINT1; Table 4b, lower part)",IC50 (CDK4-CYCLIND1; [1]),"IC50 (CDK7 CyclinH; Table 4b, lower part)","IC50 (CDK2-CYCLINA; Table 4b, lower part)",IC50 (CDK1/B; Table 4a),IC50 (CDK9-CYCLINT1; Table 4a),"IC50 (CDK4-CYCLIND1; CDK4 CyclinD1 IC50, Table 4a)",IC50 (CDK7 CyclinH; Table 4a),IC50 (CDK2-CYCLINA; Table 4a),IC50 (CDK6-CYCLIND3),Compound
2910 nM,28.1 nM,13.3 nM,1240 nM,1090 nM,–,–,–,–,–,–,"O=C1NCC[C@@]12Cc1cnc(Nc3ccc(N4CCN(CCO)CC4)c(F)c3)nc1N(C13CC(C1)C3)C2=O [Example D99, (S)-8-(bicyclo[1.1.1]pentan-1-yl)-2-((3-fluoro-4-(4-(2-hydroxyethyl)piperazin-1-yl)phenyl)amino)-5,8-dihydro-7H-spiro[pyrido[2,3-d]pyrimidine-6,3′-pyrrolidine]-2′,7-dione]"
–,–,–,–,–,1100 nM,16.1 nM,33.3 nM,1500 nM,723 nM,–,"O=C1NCC[C@@]12Cc1cnc(N[C@H]3CC[C@H](NC4CCOCC4)CC3)nc1N(C13CC(C1)C3)C2=O [Example D93, (S)-8-(bicyclo[1.1.1]pentan-1-yl)-2-(((1r,4S)-4-((tetrahydro-2H-pyran-4-yl)amino)cyclohexyl)amino)-5,8-dihydro-7H-spiro[pyrido[2,3-d]pyrimidine-6,3′-pyrrolidine]-2′,7-dione]"
37.9 nM,< 3.2 nM,< 3.2 nM,1670 nM,< 3.2 nM,–,–,–,–,–,–,"CS(=O)(=O)c1ccc(Nc2ncc3c(n2)N(C2CCCC2)C(=O)[C@]2(CCNC2=O)C3)cc1 [Example D114, (S)-8-cyclopentyl-2-((4-(methylsulfonyl)phenyl)amino)-5,8-dihydro-7H-spiro[pyrido[2,3-d]pyrimidine-6,3′-pyrrolidine]-2′,7-dione]"
–,–,–,–,–,> 10000 nM,204 nM,4.58 nM,> 10000 nM,> 10000 nM,–,"CN(C)CCOc1ccc(Nc2ncc3c(n2)N(C2CCCC2)C(=O)[C@]2(CCNC2=O)C3)nc1 [Example D138, (S)-8-cyclopentyl-2-((5-(2-(dimethylamino)ethoxy)pyridin-2-yl)amino)-5,8-dihydro-7H-spiro[pyrido[2,3-d]pyrimidine-6,3′-pyrrolidine]-2′,7-dione]"
22 nM,19.3 nM,< 3.2 nM,880 nM,4.19 nM,–,–,–,–,–,–,"CS(=O)(=O)N1CCC(Nc2ncc3c(n2)N(C24CC(C2)C4)C(=O)[C@]2(CCNC2=O)C3)CC1 [Example D123, (S)-8-(bicyclo[1.1.1]pentan-1-yl)-2-((1-(methylsulfonyl)piperidin-4-yl)amino)-5,8-dihydro-7H-spiro[pyrido[2,3-d]pyrimidine-6,3′-pyrrolidine]-2′,7-dione]"
232 nM,< 3.2 nM,< 3.2 nM,3450 nM,31.3 nM,–,–,–,–,–,–,"O=C1NCC[C@@]12Cc1cnc(Nc3ccc(OCCO)cc3)nc1N(C1CCCC1)C2=O [Example D116, (S)-8-cyclopentyl-2-((4-(2-hydroxyethoxy)phenyl)amino)-5,8-dihydro-7H-spiro[pyrido[2,3-d]pyrimidine-6,3′-pyrrolidine]-2′,7-dione]"
295 nM,> 10000 nM,< 3.2 nM,276 nM,40.4 nM,–,–,–,–,–,–,"O=C1NCC[C@@]12Cc1cnc(Nc3ccc(N4CCN(C5CC5)CC4)cc3)nc1N(C1CCCC1)C2=O [Example D202, (S)-8-cyclopentyl-2-((4-(4-cyclopropylpiperazin-1-yl)phenyl)amino)-5,8-dihydro-7H-spiro[pyrido[2,3-d]pyrimidine-6,3′-pyrrolidine]-2′,7-dione]"
8670 nM,72.6 nM,39.7 nM,3770 nM,3420 nM,–,–,–,–,–,–,"CC1CN(c2ccc(Nc3ncc4c(n3)N(C35CC(C3)C5)C(=O)[C@]3(CCNC3=O)C4)cc2)CC(C)N1 (stereo partly drawn) [Example D200, (6S)-8-(bicyclo[1.1.1]pentan-1-yl)-2-((4-(3,5-dimethylpiperazin-1-yl)phenyl)amino)-5,8-dihydro-7H-spiro[pyrido[2,3-d]pyrimidine-6,3′-pyrrolidine]-2′,7-dione]"
–,–,–,–,–,219 nM,< 3.2 nM,5.56 nM,343 nM,153 nM,–,"O=C1NCC[C@@]12Cc1cnc(N[C@H]3CC[C@H](NC4CCOCC4)CC3)nc1N(C1CCCC1)C2=O [Example D92, (S)-8-cyclopentyl-2-(((1r,4S)-4-((tetrahydro-2H-pyran-4-yl)amino)cyclohexyl)amino)-5,8-dihydro-7H-spiro[pyrido[2,3-d]pyrimidine-6,3′-pyrrolidine]-2′,7-dione]"
222 nM,< 3.2 nM,< 3.2 nM,111 nM,56.6 nM,–,–,–,–,–,–,"O=C1NCC[C@@]12Cc1cnc(Nc3ccc(N4CCN(CCO)CC4)c(F)c3)nc1N(C1CCCC1)C2=O [Example D97, (S)-8-cyclopentyl-2-((3-fluoro-4-(4-(2-hydroxyethyl)piperazin-1-yl)phenyl)amino)-5,8-dihydro-7H-spiro[pyrido[2,3-d]pyrimidine-6,3′-pyrrolidine]-2′,7-dione]"
167 nM,< 3.2 nM,< 3.2 nM,162 nM,36.8 nM,–,–,–,–,–,–,"CN1CC2(C1)CN(c1ccc(Nc3ncc4c(n3)N(C3CCCC3)C(=O)[C@]3(CCNC3=O)C4)cc1F)C2 [Example D101, (S)-8-cyclopentyl-2-((3-fluoro-4-(6-methyl-2,6-diazaspiro[3.3]heptan-2-yl)phenyl)amino)-5,8-dihydro-7H-spiro[pyrido[2,3-d]pyrimidine-6,3′-pyrrolidine]-2′,7-dione]"
2200 nM,25.4 nM,22.7 nM,> 10000 nM,803 nM,–,–,–,–,–,–,"C[C@]1(O)CC[C@@H](Nc2ncc3c(n2)N(C2CCCC2)C(=O)[C@]2(CCNC2=O)C3)CC1 [Example D126, (S)-8-cyclopentyl-2-(((1s,4R)-4-hydroxy-4-methylcyclohexyl)amino)-5,8-dihydro-7H-spiro[pyrido[2,3-d]pyrimidine-6,3′-pyrrolidine]-2′,7-dione]"
–,–,–,–,–,> 10000 nM,> 10000 nM,3.43 nM,> 10000 nM,7590 nM,–,"CN1CCN(c2ccc(Nc3ncc4c(n3)N(C3CCCC3)C(=O)N(c3ccccc3F)C4)cc2F)CC1 [Example D80, 1-cyclopentyl-7-((3-fluoro-4-(4-methylpiperazin-1-yl)phenyl)amino)-3-(2-fluorophenyl)-3,4-dihydropyrimido[4,5-d]pyrimidin-2(1H)-one]"
–,–,–,–,–,> 10000 nM,6250 nM and 987 nM,1270 nM and 188 nM,> 100000 nM,83200 nM and > 10000 nM,4670 nM,"CC(C)N1CCN(c2ccc(Nc3ncc4c(n3)N(C3CCCC3)C(=O)[C@]3(CCNC3=O)C4)c(F)c2)CC1 [Example D148, (S)-8-cyclopentyl-2-((2-fluoro-4-(4-isopropylpiperazin-1-yl)phenyl)amino)-5,8-dihydro-7H-spiro[pyrido[2,3-d]pyrimidine-6,3′-pyrrolidine]-2′,7-dione]"
353 nM,3.74 nM,< 3.2 nM,406 nM,74.6 nM,–,–,–,–,–,–,"CC1CN(c2ccc(Nc3ncc4c(n3)N(C3CCCC3)C(=O)[C@]3(CCNC3=O)C4)cc2)CC(C)N1 (stereo partly drawn) [Example D199, (6S)-8-cyclopentyl-2-((4-(3,5-dimethylpiperazin-1-yl)phenyl)amino)-5,8-dihydro-7H-spiro[pyrido[2,3-d]pyrimidine-6,3′-pyrrolidine]-2′,7-dione]"
4.46 nM,3.51 nM,< 3.2 nM,215 nM,< 3.2 nM,–,–,–,–,–,–,"CS(=O)(=O)N1CCC(Nc2ncc3c(n2)N(C2CCCC2)C(=O)[C@]2(CCNC2=O)C3)CC1 [Example D117, (S)-8-cyclopentyl-2-((1-(methylsulfonyl)piperidin-4-yl)amino)-5,8-dihydro-7H-spiro[pyrido[2,3-d]pyrimidine-6,3′-pyrrolidine]-2′,7-dione]"
2850 nM,7.85 nM,5.04 nM,2970 nM,424 nM,–,–,–,–,–,–,"CC(C)C1CCN(c2ccc(Nc3ncc4c(n3)N(C3CCCC3)C(=O)[C@]3(CCNC3=O)C4)cc2)CC1 [Example D201, (S)-8-cyclopentyl-2-((4-(4-isopropylpiperidin-1-yl)phenyl)amino)-5,8-dihydro-7H-spiro[pyrido[2,3-d]pyrimidine-6,3′-pyrrolidine]-2′,7-dione]"
–,–,–,–,–,> 10000 nM,> 10000 nM,1960 nM,> 10000 nM,> 10000 nM,–,"CN1CCN(c2ccc(Nc3ncc4c(n3)N(C3CCCC3)C(=O)N([C@H]3CCNC3)C4)cc2)CC1 [Example D71, (S)-1-cyclopentyl-7-((4-(4-methylpiperazin-1-yl)phenyl)amino)-3-(pyrrolidin-3-yl)-3,4-dihydropyrimido[4,5-d]pyrimidin-2(1H)-one]"
205 nM,4.31 nM,< 3.2 nM,222 nM,89.8 nM,–,–,–,–,–,–,"CN1CCC(c2ccc(Nc3ncc4c(n3)N(C3CCCC3)C(=O)[C@]3(CCNC3=O)C4)cc2)CC1 [Example D135, (S)-8-cyclopentyl-2-((4-(1-methylpiperidin-4-yl)phenyl)amino)-5,8-dihydro-7H-spiro[pyrido[2,3-d]pyrimidine-6,3′-pyrrolidine]-2′,7-dione]"
464 nM,< 3.2 nM,< 3.2 nM,642 nM,126 nM,–,–,–,–,–,–,"CC(C)N1CC2(CN(c3ccc(Nc4ncc5c(n4)N(C4CCCC4)C(=O)[C@]4(CCNC4=O)C5)cc3)C2)C1 [Example D102, (S)-8-cyclopentyl-2-((4-(6-isopropyl-2,6-diazaspiro[3.3]heptan-2-yl)phenyl)amino)-5,8-dihydro-7H-spiro[pyrido[2,3-d]pyrimidine-6,3′-pyrrolidine]-2′,7-dione]"
